Consider 46 molecules from patent publication US7572793B2, “3-Substituted-4-pyrimidone derivatives” (Mitsubishi Tanabe Pharma Corporation, priority 2001, dated 2009).

Molecules are shown by their SMILES.

T1 sequence (A0A3Q1MT31 1-419): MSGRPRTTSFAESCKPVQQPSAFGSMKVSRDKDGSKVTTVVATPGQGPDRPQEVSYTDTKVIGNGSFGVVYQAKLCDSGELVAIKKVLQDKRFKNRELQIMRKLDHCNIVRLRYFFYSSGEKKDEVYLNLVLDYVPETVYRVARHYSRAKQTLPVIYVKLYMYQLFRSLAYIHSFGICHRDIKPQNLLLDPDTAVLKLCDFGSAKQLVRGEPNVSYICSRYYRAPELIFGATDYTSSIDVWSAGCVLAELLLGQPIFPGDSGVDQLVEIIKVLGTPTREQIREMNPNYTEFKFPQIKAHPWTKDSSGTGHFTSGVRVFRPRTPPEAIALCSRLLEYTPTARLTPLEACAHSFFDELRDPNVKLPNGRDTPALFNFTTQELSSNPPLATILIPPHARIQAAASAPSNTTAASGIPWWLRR

The experiment addresses T1, bovine cerebral TPK1 (Bos taurus, UniProt A0A3Q1MT31).
T1 construct: from tissue; host or cells: bovine brain (cerebrum)
The experiment is described as follows: Inhibitory activity against P-GS1 phosphorylation by bovine cerebral TPK1. It counts as biochemical. To be noted: 41.7 μM [γ-32P]ATP, 25° C., 2 hours, pH 6.5. The protocol: Inhibitory Activity of the Medicament of the Present Invention Against P-GS1 Phosphorylation by Bovine Cerebral TPK1
A mixture containing 100 mM MES-sodium hydroxide (pH 6.5), 1 mM magnesium acetate, 0.5 mM EGTA, 5 mM β-mercaptoethanol, 0.02% Tween 20, 10% glycerol, 12 μg/ml P-GS1, 41.7 μM [y-^32P] ATP (68 kBq/ml), bovine cerebral TPK1 and a compound shown in Table (a final mixture contained 1.7% DMSO deriving from a solution of a test compound prepared in the presence of 10% DMSO) was used as a reaction system. The phosphorylation was started by adding ATP, and the reaction was conducted at 25° C. for 2 hours, and then stopped by adding 21% perchloric acid on ice cooling. The reaction mixture was centrifuged at 12,000 rpm for 5 minutes and adsorbed on P81 paper (Whatmann), and then the paper was washed four times with 75 mM phosphoric acid, three times with water and once with acetone. The paper was dried, and the residual radioactivity was measured using a liquid scintillation counter. […] PHF formation, and that the medicaments of the present invention are effective for preventive and/or therapeutic treatment of Alzheimer disease and the above-mentioned diseases.
Consider `Cn1c(N2CCOC(c3c(F)cccc3Cl)C2)nc(-c2ccncn2)cc1=O` (stereo not shown) [Compound B239], for which half-maximal inhibition (IC50) required 0.74 nM. `Cn1c(N2CCOC(c3ccc(F)cc3Cl)C2)nc(-c2ccncn2)cc1=O` (stereo not shown) [Compound B240]: the IC50 (commonly the point on the concentration scale where inhibition reaches its midpoint) came to 3.5 nM.

In turn, `CC(C)Oc1cc(F)ccc1C1CN(c2nc(-c3ccncn3)cc(=O)n2C)CCO1` (stereo not shown) [Compound B241] registered an IC50 of 4.6 nM. In the case of `Cn1c(N2CCOC(c3cc4cc(F)ccc4n3C)C2)nc(-c2ccncn2)cc1=O` (stereo not shown) [Compound B242], the midpoint of inhibition, the IC50, lay at 6.9 nM.

In turn, `Cn1c(N2CCO[C@@H](c3cccc4c3OCC4)C2)nc(-c2ccncn2)cc1=O` [Compound B243] displayed an IC50 of 4.2 nM. As to `COc1cc(F)cc(OC)c1[C@H]1CN(c2nc(-c3ccncn3)cc(=O)n2C)CCO1` [Compound B244], the midpoint of inhibition, the IC50, lay at 0.17 nM. Consider `COc1cc(F)cc(OC)c1[C@@H]1CN(c2nc(-c3ccncn3)cc(=O)n2C)CCO1` [Compound B245], for which the IC50 worked out at 1.3 nM. Regarding `COc1cc(C)c(C)cc1C1CN(c2nc(-c3ccncn3)cc(=O)n2C)CCO1` (stereo not shown) [Compound B246], the IC50 is 1.1 nM. The figure for `Cn1c(N2CCOC(c3ccc(F)cc3OCC3CC3)C2)nc(-c2ccncn2)cc1=O` (stereo not shown) [Compound B247] is 15 nM; for `COc1ccc(C#N)cc1C1CN(c2nc(-c3ccncn3)cc(=O)n2C)CCO1` (stereo not shown) [Compound B248] it is 0.78 nM; for `COc1cc(Cl)ccc1C1CN(c2nc(-c3ccncn3)cc(=O)n2C)CCO1` (stereo not shown) [Compound B249] it is 0.83 nM.

`COc1cc(F)cc(F)c1C1CN(c2nc(-c3ccncn3)cc(=O)n2C)CCO1` (stereo not shown) [Compound B250] had an IC50 of 0.56 nM.

Take `Cn1c(N2CCOC(c3noc4ccccc34)C2)nc(-c2ccncn2)cc1=O` (stereo not shown) [Compound B251]: the IC50 was 2.4 nM. Regarding `Cn1c(N2CCO[C@@H](c3noc4ccccc34)C2)nc(-c2ccncn2)cc1=O` [Compound B252], the IC50 turned out to be 1 nM. Molecule `COc1cc(C#N)ccc1C1CN(c2nc(-c3ccncn3)cc(=O)n2C)CCO1` (stereo not shown) [Compound B253] gave an IC50 of 0.7 nM. In turn, `COc1cc(F)cc(F)c1[C@H]1CN(c2nc(-c3ccncn3)cc(=O)n2C)CCO1` [Compound B254] returned an IC50 of 0.24 nM. Under `COc1ccc(-c2ccc(F)cc2)cc1C1CN(c2nc(-c3ccncn3)cc(=O)n2C)CCO1` (stereo not shown) [Compound B255] stands 4.6 nM. In turn, `COc1ccc(-c2cccnc2)cc1C1CN(c2nc(-c3ccncn3)cc(=O)n2C)CCO1` (stereo not shown) [Compound B256] yielded an IC50 of 0.64 nM. `Cn1c(N2CCOC(c3ccc(F)cc3O)C2)nc(-c2ccncn2)cc1=O` (stereo not shown) [Compound B257] registered an IC50 of 7.4 nM. Take `COc1cc(-c2ccccc2)ccc1C1CN(c2nc(-c3ccncn3)cc(=O)n2C)CCO1` (stereo not shown) [Compound B258]: 1.4 nM corresponded to half-maximal inhibition (IC50). The molecule `COc1ccc(N2CCCC2)cc1C1CN(c2nc(-c3ccncn3)cc(=O)n2C)CCO1` (stereo not shown) [Compound B259] came in with a half-maximal inhibitory concentration (IC50) of 1.2 nM.

Consider `COc1cc(N2CCCC2)ccc1C1CN(c2nc(-c3ccncn3)cc(=O)n2C)CCO1` (stereo not shown) [Compound B260], for which half-maximal inhibition (IC50) required 0.77 nM.

As to `COc1ccc(-c2ccccc2F)cc1C1CN(c2nc(-c3ccncn3)cc(=O)n2C)CCO1` (stereo not shown) [Compound B261], the IC50 is 1.4 nM. For `COc1cccc(-c2ccc(OC)c(C3CN(c4nc(-c5ccncn5)cc(=O)n4C)CCO3)c2)c1` (stereo not shown) [Compound B262], inhibition was half-maximal at 1.3 nM (IC50). Molecule `COc1ccc(-c2ccc(Cl)cc2Cl)cc1C1CN(c2nc(-c3ccncn3)cc(=O)n2C)CCO1` (stereo not shown) [Compound B263] yielded an IC50 of 13 nM. Molecule `COc1ccc(CN2CCCC2)cc1C1CN(c2nc(-c3ccncn3)cc(=O)n2C)CCO1` (stereo not shown) [Compound B264] registered an IC50 of 0.6 nM. With `COc1ccc(-c2cccc(F)c2)cc1C1CN(c2nc(-c3ccncn3)cc(=O)n2C)CCO1` (stereo not shown) [Compound B266], 1.6 nM corresponded to half-maximal inhibition (IC50). `COc1ccccc1-c1ccc(OC)c(C2CN(c3nc(-c4ccncn4)cc(=O)n3C)CCO2)c1` (stereo not shown) [Compound B267] came in with an IC50 of 1.2 nM. Under `COc1ccc(-c2ccc(OC)c(C3CN(c4nc(-c5ccncn5)cc(=O)n4C)CCO3)c2)cc1` (stereo not shown) [Compound B268] stands 1.7 nM. Under `COc1ccc(Nc2ccccc2)cc1C1CN(c2nc(-c3ccncn3)cc(=O)n2C)CCO1` (stereo not shown) [Compound B269] stands 1.1 nM; under `Cn1c(N2CCOC(c3ccc(F)cc3OCc3ccccc3)C2)nc(-c2ccncn2)cc1=O` (stereo not shown) [Compound B270], 27 nM. Under `Cn1c(N2CCOC(c3cc4ccccc4o3)C2)nc(-c2ccncn2)cc1=O` (stereo not shown) [Compound B271] stands 4.2 nM. As for `Cn1c(N2CCO[C@@H](c3cc4ccccc4o3)C2)nc(-c2ccncn2)cc1=O` [Compound B272], the IC50 worked out at 7.1 nM. In turn, `COc1cccc2cc(C3CN(c4nc(-c5ccncn5)cc(=O)n4C)CCO3)oc12` (stereo not shown) [Compound B273] returned an IC50 of 4.3 nM. Consider `COc1ccc(-c2cccc(CN3CCCC3)c2)cc1C1CN(c2nc(-c3ccncn3)cc(=O)n2C)CCO1` (stereo not shown) [Compound B274], for which half-maximal inhibition (IC50) was put at 0.57 nM. `COc1cc(-c2ccccc2F)ccc1C1CN(c2nc(-c3ccncn3)cc(=O)n2C)CCO1` (stereo not shown) [Compound B277] had an IC50 of 1.4 nM. The figure for `COc1cc(-c2cccc(F)c2)ccc1C1CN(c2nc(-c3ccncn3)cc(=O)n2C)CCO1` (stereo not shown) [Compound B278] is 1.1 nM; for `COc1cc(-c2ccc(F)cc2)ccc1C1CN(c2nc(-c3ccncn3)cc(=O)n2C)CCO1` (stereo not shown) [Compound B279] it is 1.2 nM; for `COc1ccc(-c2ccccn2)cc1C1CN(c2nc(-c3ccncn3)cc(=O)n2C)CCO1` (stereo not shown) [Compound B280] it is 0.6 nM. Under `COc1cccc(-c2ccc(OC)c(C3CN(c4nc(-c5ccncn5)cc(=O)n4C)CCO3)c2)n1` (stereo not shown) [Compound B281] stands 0.84 nM. Under `COc1ncc(-c2ccc(OC)c(C3CN(c4nc(-c5ccncn5)cc(=O)n4C)CCO3)c2)c(OC)n1` (stereo not shown) [Compound B283] stands 1.9 nM; under `Cn1c(N2CCOC3(CCOc4ccccc43)C2)nc(-c2ccncn2)cc1=O` (stereo not shown) [Compound B284], 11 nM.

`Cn1c(N2CCOC3(CCCOc4ccccc43)C2)nc(-c2ccncn2)cc1=O` (stereo not shown) [Compound B285] displayed a concentration for half-maximal inhibition (IC50) of 26 nM.

The molecule `Cn1c(N2CCCC(C(=O)c3ccccc3)C2)nc(-c2ccncn2)cc1=O` (stereo not shown) [Compound C401] displayed an IC50 of 1.1 nM. `Cn1c(N2CCOC(C(=O)c3ccccc3)C2)nc(-c2ccncn2)cc1=O` (stereo not shown) [Compound C501] had a 50% inhibitory concentration (IC50) of 0.56 nM.

For the molecule `Cn1c(N2CCC(C(=O)c3ccc(Cl)cc3)CC2)nc(-c2ccncn2)cc1=O` [Compound D034, 2-[4-(4-Chlorobenzoyl)piperidin-1-yl]-3-methyl-6-pyrimidin-4-yl-3H-pyrimidin-4-one], the midpoint of inhibition, the IC50, lay at 1.1 nM.
